Results reported in patent US10844071B2, “Substituted [1,2,3]triazolo[4,5-d]pyrimidines that lower stress-induced p-tau” (BUCK INSTITUTE FOR RESEARCH ON AGING, priority 2015, dated 2020).
Converted amounts (≈) assume the structure as drawn. Counter-ions that a name gives are not always drawn. Like-named read-outs stand apart in the source and are kept apart here.

Assays:
Solubility in DMSO = format: physicochemical
CRF1 = target: T1, CRF1 (Homo sapiens, UniProt P34998); experiment: CRF1 binding (Ki); details: Tertiary; read-out: CRF1 Ki
T1 sequence (P34998 24-415): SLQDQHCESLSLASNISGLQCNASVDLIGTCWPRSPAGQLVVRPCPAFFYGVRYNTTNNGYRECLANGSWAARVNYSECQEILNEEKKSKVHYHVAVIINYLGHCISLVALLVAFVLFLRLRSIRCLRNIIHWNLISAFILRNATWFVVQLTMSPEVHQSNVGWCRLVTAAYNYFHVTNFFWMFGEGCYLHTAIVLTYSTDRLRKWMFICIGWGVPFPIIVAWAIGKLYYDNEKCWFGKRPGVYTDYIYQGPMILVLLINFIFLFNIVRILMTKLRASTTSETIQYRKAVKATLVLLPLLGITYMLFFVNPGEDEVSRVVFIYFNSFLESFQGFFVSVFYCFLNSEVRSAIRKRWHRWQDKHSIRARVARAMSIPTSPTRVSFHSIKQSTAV

SH-SY5Y cells [1] = experiment: Primary screen in SH-SY5Y cells (tau, p-tau); format: cell-based; details: for Tau % / p-Tau (%): Primary (SH-SY5Y); for p-tau / tau: SH-SY5Y cells, no CRF
Experimental: (§1) As described below, in vitro studies were performed using SHSY-5Y cells. These cells are a useful neurological model that differentiate into cells with morphological and biochemical characteristics of mature neurons including mature isoforms of tau.
However, J04 did lower p-tau to the same level as J03 and significant may not have been reached due to low N #.

PAMPA = format: in vitro ADME; details: Tertiary
SH-SY5Y cells [2] = experiment: Secondary screen in SH-SY5Y cells with CRF stimulation (tau, p-tau, sAPPα); format: cell-based
Experimental: as §1
In an initial study, SHSY-5Y cells were cultured without serum to induce differentiation and increase tau expression. […] The increases were proportional and both were about 50%. J03 (FIG. 4A) reduced the CRF-induced tau increases more than the p-tau increases. The increase in p-tau with CRF was expected, but the increase in tau less predictable as CRF reduces neuronal differentiation (see Chen et al. (2004) Proc. Natl. Acad. Sci. USA, 101(44): 15782-15787), however, it can increase tau accumulation.

J20 mice = experiment: J17 pilot study in J20 mice (oral, 28 days); format: in vivo, mouse
Experimental: Animal experiments were performed using J20 mice. The J20 mouse is a model of for Alzheimer's disease. This model overexpresses human APP with two mutations linked to familial Alzheimer's disease (the APP KM670/671NL (Swedish) and […] (Indiana) mutations).
In a J17 pilot study (#1 pilot study) male and female J20 mice were housed singly and treated with J17 at 10 mkd by oral delivery for 28 days. […]

[3] = In vivo pharmacokinetics, brain and plasma levels; parameters: species or system mouse
[4] = organic solvent or mixture, read-out: Solubility
[5] = Secondary (SH-Sy5Y, CRF stimulation)
[6] = subcutaneous injection of 10 mg/kg
[7] = SH-SY5Y cells, CRF-induced increase

Compound: CCC(COC)n1nnc2c(N(C)C3CC3)nc(C)nc21 (centres unmarked) [Compound J11]
- solubility (Solubility in DMSO; [4]): ~10 mM (≈ 2900 µg/mL)
- Ki (CRF1): > 1000 nM
- Tau % (SH-SY5Y cells [1]): Unchanged
- PAMPA (PAMPA): 0.94
- sAPPα (%) (SH-SY5Y cells [2]; [5]): Unchanged

Compound: CCC(COC)n1nnc2c(N3CC(C)CC(C)C3)nc(C)nc21 (centres unmarked) [Compound J12]
- solubility (Solubility in DMSO; [4]): ~10 mM (≈ 3320 µg/mL)
- Ki (CRF1): > 1000 nM
- PAMPA (PAMPA): 2.39
- sAPPα (%) (SH-SY5Y cells [2]; [5]): Unchanged

Compound: CCC(COC)n1nnc2c(N(C)c3c(C)cc(C)cc3C)nc(C)nc21 (centres unmarked) [Compound J14]
- solubility (Solubility in DMSO; [4]): ~10 mM (≈ 3680 µg/mL)
- Ki (CRF1): 25 nM
- Tau % (SH-SY5Y cells [1]): Unchanged
- PAMPA (PAMPA): 1.11

Compound: CCC(COC)n1nnc2c(N(C)C3CCOCC3)nc(C)nc21 (centres unmarked) [Compound J15]
- solubility (Solubility in DMSO; [4]): ~10 mM (≈ 3340 µg/mL)
- Ki (CRF1): > 1000 nM
- Tau % (SH-SY5Y cells [1]): Unchanged
- p-Tau (%) (SH-SY5Y cells [1]): ↓>10%
- PAMPA (PAMPA): 0.34
- Tau % (SH-SY5Y cells [2]; [5]): ↓>30%
- p-Tau (%) (SH-SY5Y cells [2]; [5]): ↓>30%
- sAPPα (%) (SH-SY5Y cells [2]; [5]): >10%

Compound: CCC(COC)Nc1nc(C)nc2c1nnn2-c1ccc(OC)cc1C (centres unmarked) [Compound J17]
- solubility (Solubility in DMSO; [4]): ~10 mM (≈ 3560 µg/mL)
- Ki (CRF1): 30 nM
- novel object preference (J20 mice; all mice): increase with J17 was significant
- sAPPα (J20 mice; both genders): increase with J03 but not J17
- p-tau/tau ratio (J20 mice; males): lower still and just missed significance
- sAPPα/sAPPβ ratio (J20 mice; males): greater
- activity (total interactions) (J20 mice; not significant): lowered
- sAPPβ (J20 mice; one high outlier eliminated): decrease
- brain levels ([3]; oral delivery, 10 mg/kg): ~50 ng/g
- plasma levels relative to brain levels ([3]; oral delivery, 10 mg/kg): ~10 fold
- brain levels [3, 6]: ~400 ng/g
- plasma levels [3, 6]: ~4000 ng/m
- p-tau (SH-SY5Y cells [1]): significantly lower
- tau (SH-SY5Y cells [1]): significantly lower
- PAMPA (PAMPA): 0.64
- p-tau after CRF exposure (SH-SY5Y cells [2]; [7]): decreased
- tau after CRF exposure (SH-SY5Y cells [2]; [7]): decreased
- sAPPα after CRF exposure (SH-SY5Y cells [2]; SH-SY5Y cells, FIG. 19): same as control
- sAPPα (%) (SH-SY5Y cells [2]; [5]): Unchanged
- sAPPα with increasing concentrations of CRF (SH-SY5Y cells [2]; without CRF and at 50 nM CRF, FIG. 20): lack of increase

Compound: CCC(COC)Nc1nc(C)nc2c1nnn2-c1ccc(Cl)cc1C (centres unmarked) [Compound J19, 3-(4-Chloro-2-methylphenyl)-N-(1-methoxybutan-2-yl)-5-methyl-3H-[1,2,3]triazolo[4,5-d]pyrimidin-7-amine]
- solubility (Solubility in DMSO; [4]): ~10 mM (≈ 3610 µg/mL)
- brain levels at the peak ([3]; SQ injection at 10 mkd): ~190 ng/g
- time of peak brain level after injection ([3]; SQ injection at 10 mkd): 4 h
- brain levels with oral delivery compared to SQ ([3]; oral delivery, detectable from 1 to 6 hours): much lower
- p-tau/tau ratio (SH-SY5Y cells [1]; FIG. 29): unchanged
- p-tau (SH-SY5Y cells [1]): decreased
- tau (SH-SY5Y cells [1]): decreased
- PAMPA (PAMPA): 0.75
- p-tau/tau ratios (SH-SY5Y cells [2]; 50 and 100 nM CRF, FIG. 28 panel C): highly significantly decreased
- sAPPα (SH-SY5Y cells [2]; FIG. 28 panel D, significance for J03 at 100 nM CRF): trend for sAPPα to be higher
- sAPPα (%) (SH-SY5Y cells [2]; [5]): Unchanged
- tau (SH-SY5Y cells [2]; absence of CRF and presence of 100 nM CRF, FIG. 28 panel A): trend to decrease
- p-tau (SH-SY5Y cells [2]; presence and absence of CRF, FIG. 28 panel B): significantly reduced

Compound: CCC(COC)Nc1nc(C)nc2c1nnn2-c1ccc(OC)cc1C (centres unmarked) [J17 HCl]
- solubility (Solubility in DMSO): ≈10 mM
- Tau % (SH-SY5Y cells [1]): Unchanged
- p-Tau (%) (SH-SY5Y cells [1]): Unchanged

Compound: CCC(COC)N(C)c1nc(C)nc2c1nnn2-c1ccc(OC)cc1C (centres unmarked) [J20 HCl]
- solubility (Solubility in DMSO; [4]): ~10 mM
- Tau % (SH-SY5Y cells [1]): Unchanged
